Measured values published in US20190077856A1, “METHOD OF TREATING DISEASES USING KINASE MODULATORS” (Memorial Sloan Kettering Cancer Center, priority 2016, published 2019).

Key:
TPC1 [1] = experiment: Surface HLA-A02 and HLA-ABC by flow cytometry (BB7, W6/32) after 72 hours; assay type: cell-based, human; conditions: different doses
Experimental: (§1) FIG. 14A-FIG. 14C: TPC1 (a papillary thyroid cancer cell line) treated with AST487 increased HLA surface expression. FIG. 14A and FIG. 14B: TPC1 cells were seeded and treated with different doses of AST487 (a RET inhibitor). After 72 hours, cells were harvested and surface HLA-A02 and HLA-ABC were measured through flow cytometry with BB7 and W6/32 staining antibodies, respectively. FIG. 14C: After 24 hours of AST487 incubation, cells were lysed and a western blot was performed to show a decrease in pRET and pERK with AST487 treatment.
(§2) The effect of AST487, a RET inhibitor, on TPC1 (a papillary thyroid cancer cell line) was investigated. TPC1 cells were seeded and treated with different doses of AST487. After 72 hours, cells were harvested and surface HLA-A02 and HLA-ABC were measured through flow cytometry with BB7 and W6/32 staining antibodies, respectively (FIG. 14A-FIG. 14B).

pRET and pERK = experiment: Western blot for pRET and pERK after 24 hours; assay type: cell-based, human; conditions: TPC1
Experimental: as §1, §2

TT cells = experiment: Surface HLA-A02 and HLA-ABC by flow cytometry (BB7, W6/32) after 72 hours; assay type: cell-based, human; conditions: different doses
Experimental: FIG. 15A and FIG. 15B: TT cells were seeded and treated with different doses of AST487 (a RET inhibitor). After 72 hours, cells were harvested and surface HLA-A02 and HLA-ABC were measured through flow cytometry with BB7 and W6/32 staining antibodies, respectively. FIG. 15C: After 24 hours of AST487 incubation, cells were lysed and a western blot was performed. TT cells are derived from a medullary thyroid cancer that has a RET point mutation, as opposed to the TPC1 cells, which are derived from a papillary thyroid cancer and have a RET/PTC1 fusion.
The same analysis was performed in TT cells (a medullary thyroid cancer cell line). TT cells are derived from a medullary thyroid cancer that has a RET point mutation, as opposed to TPC1 cells, which are derived from a papillary thyroid cancer and have a RET/PTC1 fusion. TT cells were seeded and treated with different doses of AST487. After 72 hours, cells were harvested and surface HLA-A02 and HLA-ABC were measured through flow cytometry with BB7 and W6/32 staining antibodies, respectively (FIG. 15A-FIG. 15B). After 24 hours of AST487 incubation, cells were lysed and a western blot was performed (FIG. 15C).

TPC1 [2] = experiment: qPCR of transcript levels of HLA and antigen processing machinery; assay type: cell-based, human; conditions: 24 or 48 hours
Experimental: Using qPCR, transcript levels of HLA and antigen processing machinery were measured after TPC1 cells were treated with AST487 for 24 (FIG. 17A) or 48 hours (FIG. 17B). Upregulation of mRNA levels for HLA and antigen processing machinery were seen.
Real-Time PCR: Total RNA was extracted using Qiagen RNA Easy Plus (Qiagen; #74134) after cells were treated for 48 hrs with indicated inhibitor. RNA was converted into cDNA using gScript™ cDNA SuperMix (Quanta Biosciences Gaithersburg, Md. USA). Real-time assays were conducted using TaqMan real-time probes. (Life Technlogies) for human HLA-A (Hs01058806_gl), B2M (Hs00187842_ml), TAP1 (Hs00388677_ml), TAP2 (Hs00241060_ml), and TBP (Hs00427620_ml) using 50 ng cDNA. For assessment of gene expression using RT-PCR PerfeCTa® FastMix® II (Quanta), reactions were carried out in triplicates using standard thermocycling conditions (2 minutes at 50° C., 10 minutes at 95° C., 40 cycles of 15 seconds at 95° C., and 1 minute at 60° C.). TBP was used as internal control and ΔΔCT method was used for relative mRNA calculations.
Next, using qPCR, transcript levels of HLA and antigen processing machinery were measured after TPC1 cells were treated with AST487 for 24 (FIG. 17, left panel) or 48 hours (FIG. 17, right panel). Upregulation of mRNA levels for HLA and antigen processing machinery were seen.

TPC1 [3] = experiment: Binding of TCR mimic antibody ESK and ADCC (chromium release) with ESK-M; assay type: cell-based, human
Experimental: FIG. 18A-FIG. 18B: AST487 increased cytolytic activity of TCRm antibody. FIG. 18A: TPC1 cells were treated with different doses of AST487 and binding of ESK (a TCR mimic monoclonal antibody specific for the WT1 RMF peptide/HLA-A02:01 complex) was measured. FIG. 18B: With increase of ESK binding in vitro, the effect on cytolytic activity of ESK was measured with an ADCC assay. TPC1 cells were treated with AST487 or DMSO for 72 hours and then incubated with chromium. Peripheral blood mononuclear cells (PBMCs), chromium labeled target cells, and ESK-M (or an isotype) were mixed and incubated for 5 hours. Varying effector to target ratios were used. Afterwards, chromium levels in the media were measured to determine percent specific lysis.
For FIG. 18A, TPC1 cells were treated with different doses of AST487 and binding of ESK (a TCR mimic monoclonal antibody specific for the WT1 RMF peptide/HLA-A02:01 complex) was measured. For FIG. 18B, with increase of ESK binding in vitro, the effect on cytolytic activity of ESK was measured with an antibody-dependent cell-mediated cytotoxicity (ADCC) assay. TPC1 cells were treated with AST487 or DMSO for 72 hours and then incubated with chromium. PBMCs, chromium labeled target cells, and ESK-M (or an isotype) were mixed and incubated for 5 hours. […] Afterwards, chromium levels in the media were measured to determine percent specific lysis.

TPC1 cells = experiment: In vivo treatment of subcutaneous TPC1 tumors, flow cytometry of tumor cells; design: species or system NRG mice; conditions: 7 days of treatment
Experimental: FIG. 19A-FIG. 19B: AST487 treatment in vivo increased surface HLA expression levels. FIG. 19A: NRG mice were injected with TPC1 cells and treated with vehicle (control) or AST487. BB7 and W6/32 binding on TPC1 cells were measured, and are shown in FIG. 19A (normalized to vehicle-treated mice) for vehicle-treated, 10 mg/kg AST487-treated, and 35 mg/kg AST487-treated mice. […] PD-L1 levels were measured as binding to anti-PD-L1 antibody.
NRG mice (Jackson labs NOD-Rag 1 null IL2rgnull, NOD rag gamma) were injected with TPC1 cells subcutaneously, and then treated 4 weeks later with vehicle (phosphate buffered saline) or with AST487 (a RET inhibitor) at a dose of 10 mg/kg or 35 mg/kg. After 7 days of treatment, tumors were harvested, and tumor cells were assessed for binding to BB7 (a monoclonal antibody specific to HLA-A02) and binding to W6/32 (a monoclonal antibody specific to pan HLA-ABC). Tumor cells were GFP-labeled and were distinguished from stroma and normal cells by gating for GFP in flow cytometry. […] One mouse in the vehicle control group was excluded as an outlier with 99% confidence interval as determined by Q test. PD-L1 expression by the tumor was also assessed by measuring binding of anti-PD-L1 antibody.

## CCN1CCN(Cc2ccc(NC(=O)Nc3ccc(Oc4cc(NC)ncn4)cc3)cc2C(F)(F)F)CC1 [AST487, 1-[4-[(4-ethylpiperazin-1-yl)methyl]-3-(trifluoromethyl)phenyl]-3-[4-[6-(methylamino)pyrimidin-4-yl]oxyphenyl]urea]
TPC1 [1]
  HLA class I surface expression: increased
pRET and pERK
  pRET and pERK: decrease
TT cells
  surface HLA-A: upregulated
TPC1 [2]
  mRNA levels for HLA and antigen processing machinery: Upregulation
TPC1 [3]; 72 hours AST487, then PBMCs and ESK-M 5 hours
  cytolytic activity of TCRm antibody (ADCC, ESK-M): increased
TPC1 [3]; different doses
  ESK binding: increase
TPC1 cells; 10 mg/kg or 35 mg/kg
  HLA-A02 expression (BB7 binding) on the surface of the tumor cells: increased
  pan HLA-ABC expression (W6/32 binding) on the surface of the tumor cells: increased
TPC1 cells; anti-PD-L1 antibody binding
  expression of PD-L1 by the tumor: did not change
